Here are results for 3 molecules from BindingDB's records for doi:10.1021/jm9903343 (Harvard Medical School, 2000).

As usually defined, the Ki is a dissociation constant, usually derived from enzyme kinetics or from competition with a known ligand. A high value points to weaker binding.

SMILES strings stand for the structures.

This test in a line: Binding affinity towards Opioid receptor delta 1 by displacing the radioligand [3H]naltrindole from guinea pig brain membrane.
The molecule `O=C1c2ccc(O)cc2C23CCCCC2C1N(CC1CCCO1)CC3` (stereo not drawn) registered a Ki of 1 nM. That is a single-digit nanomolar value. The same measure for `O=C1c2ccc(O)cc2C23CCCCC2C1N(CC1CC1)CC3` (stereo not drawn): 150 nM; for `C[C@H]1C2C(=O)c3ccc(O)cc3[C@@]1(C)CCN2CC1CCCO1` (stereo partly drawn) [8-Hydroxy-6,11-dimethyl-3-(tetrahydro-furan-2-ylmethyl)-3,4,5,6-tetrahydro-2H-2,6-methano-benzo[d]azocin-1-one]: above 100000 nM.
